Experimental data: patent US20250171495A1, “MUTLI-TARGETED SERINE PROTEASE INHIBITORS FOR TREATMENT OF CANCER AND VIRAL INFECTION” (Washington University, priority 2023, published 2025)
Like-named read-outs stand apart in the source and are kept apart here.

What was measured:
Assay type in all cases: biochemical
[1] = target: T1, matriptase (Homo sapiens, UniProt Q9Y5Y6); experiment: Fluorogenic kinetic enzyme inhibitor assay, matriptase
T1 construct: purchased R&D Systems 3946-SEB-010
T1 sequence (Q9Y5Y6 615-855 limits assumed): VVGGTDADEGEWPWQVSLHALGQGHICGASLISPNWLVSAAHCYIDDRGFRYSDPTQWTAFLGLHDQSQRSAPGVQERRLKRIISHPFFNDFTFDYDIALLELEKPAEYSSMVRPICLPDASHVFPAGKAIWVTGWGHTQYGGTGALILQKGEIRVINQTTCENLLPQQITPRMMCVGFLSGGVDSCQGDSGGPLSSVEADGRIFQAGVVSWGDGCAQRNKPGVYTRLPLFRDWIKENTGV

[2] = target: T2, hepsin (Homo sapiens, UniProt P05981); experiment: Fluorogenic kinetic enzyme inhibitor assay, hepsin
T2 construct: purchased R&D Systems 4776-SE-010

[3] = target: T3, HGFA (Homo sapiens, UniProt Q04756); experiment: Fluorogenic kinetic enzyme inhibitor assay, HGFA
T3 construct: purchased R&D Systems 1514-SE-010
T3 sequence (Q04756 408-655 limits assumed): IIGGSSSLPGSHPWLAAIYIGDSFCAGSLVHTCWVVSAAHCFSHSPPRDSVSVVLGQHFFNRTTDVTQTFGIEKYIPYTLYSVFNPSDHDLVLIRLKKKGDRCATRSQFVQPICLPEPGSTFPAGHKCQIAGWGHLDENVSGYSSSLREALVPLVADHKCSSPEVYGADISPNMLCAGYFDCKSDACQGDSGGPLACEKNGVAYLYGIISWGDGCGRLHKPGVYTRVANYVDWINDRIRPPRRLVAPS
T3 sequence (Q04756 373-407 partner limits assumed): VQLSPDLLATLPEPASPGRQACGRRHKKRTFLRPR

[4] = target: T4, Factor Xa (Homo sapiens, UniProt P00742); experiment: Fluorogenic assay, Factor Xa; details: read-out: Factor Xa IC50
T4 construct: TMPRSS2; Matriptase; Hepsin; HGFA; Thrombin; Factor Xa

[5] = target: TMPRSS2 (Homo sapiens, UniProt O15393); experiment: Fluorogenic kinetic enzyme inhibitor assay, TMPRSS2; parameters: purchased Cusabio Technology CSB-YP023924HU
[6] = target: Thrombin (Homo sapiens, UniProt P00734); experiment: Fluorogenic assay, thrombin
[7] = 30 min incubation, Boc-QLR-AMC at Km, read-out: HGFA IC50
[8] = 30 min incubation, Boc-QAR-AMC at Km, read-out: Hepsin IC50

Chain of TMPRSS2 (O15393 106-492 limits assumed): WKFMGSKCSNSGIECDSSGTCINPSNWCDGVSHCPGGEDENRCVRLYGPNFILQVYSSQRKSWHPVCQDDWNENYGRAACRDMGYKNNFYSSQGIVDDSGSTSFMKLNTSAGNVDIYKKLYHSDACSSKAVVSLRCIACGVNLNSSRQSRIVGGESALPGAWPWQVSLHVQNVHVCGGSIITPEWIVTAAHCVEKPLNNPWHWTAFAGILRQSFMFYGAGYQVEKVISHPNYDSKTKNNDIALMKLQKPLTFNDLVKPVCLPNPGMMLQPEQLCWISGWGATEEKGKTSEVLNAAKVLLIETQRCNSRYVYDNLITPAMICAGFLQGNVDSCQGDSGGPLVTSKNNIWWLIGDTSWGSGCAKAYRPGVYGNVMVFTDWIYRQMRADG
T2 sequence (P05981 163-417 limits assumed): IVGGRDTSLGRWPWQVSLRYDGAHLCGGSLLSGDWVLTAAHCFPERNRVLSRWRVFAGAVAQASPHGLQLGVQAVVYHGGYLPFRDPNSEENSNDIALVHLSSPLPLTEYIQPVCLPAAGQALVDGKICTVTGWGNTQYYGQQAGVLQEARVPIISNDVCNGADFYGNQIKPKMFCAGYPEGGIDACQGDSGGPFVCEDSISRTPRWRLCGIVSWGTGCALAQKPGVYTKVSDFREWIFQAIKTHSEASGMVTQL
T2 sequence (P05981 1-162 partner limits assumed): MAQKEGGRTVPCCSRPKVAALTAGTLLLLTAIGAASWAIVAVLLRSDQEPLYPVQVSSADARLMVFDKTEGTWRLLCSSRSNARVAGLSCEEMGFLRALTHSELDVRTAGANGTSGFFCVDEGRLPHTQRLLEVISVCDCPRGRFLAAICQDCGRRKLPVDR
T4 sequence (P00742 235-488 limits assumed): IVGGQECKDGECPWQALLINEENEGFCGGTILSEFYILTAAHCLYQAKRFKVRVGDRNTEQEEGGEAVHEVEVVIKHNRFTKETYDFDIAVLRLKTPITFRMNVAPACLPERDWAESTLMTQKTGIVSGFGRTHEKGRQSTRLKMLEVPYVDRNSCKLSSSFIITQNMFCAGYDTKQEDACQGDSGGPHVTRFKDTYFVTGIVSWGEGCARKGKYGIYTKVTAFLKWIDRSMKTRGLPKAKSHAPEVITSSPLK
T4 sequence (P00742 41-179 partner limits assumed): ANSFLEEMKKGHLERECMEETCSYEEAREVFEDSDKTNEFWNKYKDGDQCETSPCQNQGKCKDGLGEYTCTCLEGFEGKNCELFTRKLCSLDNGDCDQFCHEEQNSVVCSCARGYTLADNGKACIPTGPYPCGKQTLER

| SMILES | IC50 ([1]; read-out: Matriptase IC50) [nM] | IC50 ([2]; read-out: Hepsin IC50) [nM] | IC50 ([3]; read-out: HGFA IC50) [nM] | IC50 [4] [nM] | IC50 ([5]; read-out: TMPRSS2 IC50) [nM] | IC50 [3, 7] [nM] | further results |
| --- | --- | --- | --- | --- | --- | --- | --- |
| CCC(C)[C@H](NC(C)=O)C(=O)N[C@@H](CCC(N)=O)C(=O)N[C@@H](Cc1ccccc1)C(=O)N[C@@H](CCCNC(=N)N)C(=O)c1nc2ccccc2s1 (stereo partly drawn) [MM3116, N-[(S)-1-[N-(S)-1-[(1,3-benzothiazol-2-yl)carbonyl]-4-guanidinobutylcarbamoyl]-2-phenylethyl](S)-2-[(2S)-2-acetylamino-3-methylvalerylamino]glutaramide] | 0.92 | 0.14 | 30 | 792 | 1.73 | – | – |
| CC(=O)NCC(=O)N[C@@H](CCC(N)=O)C(=O)N[C@@H](Cc1ccccc1)C(=O)N[C@@H](CCCNC(=N)N)C(=O)c1nc2ccccc2s1 [MM3122, N-[(S)-1-[N-(S)-1-[(1,3-benzothiazol-2-yl)carbonyl]-4-guanidinobutylcarbamoyl]-2-phenylethyl](S)-2-[(acetylaminomethyl)carbonylamino]glutaramide] | 0.314 | 0.194 | – | 700 | 0.03 | – | IC50 [3]: 32.5 nM |
| CC(=O)N1CCC[C@H]1C(=O)N[C@@H](CCC(N)=O)C(=O)N[C@@H](Cc1ccccc1)C(=O)N[C@@H](CCCNC(=N)N)C(=O)c1nc2ccccc2s1 [MM3123, N-[(S)-1-[N-(S)-1-[(1,3-benzothiazol-2-yl)carbonyl]-4-guanidinobutylcarbamoyl]-2-phenylethyl](S)-2-[(S)-1-acetyl-2-pyrrolidinylcarbonylamino] glutaramide] | 0.316 | – | 75 | 199 | 0.06 | – | IC50 [2]: 0.135 nM |
| CC(=O)N[C@@H](CCC(N)=O)C(=O)N[C@@H](Cc1ccccc1)C(=O)N[C@@H](CCCNC(=N)N)C(=O)c1nc2ccccc2s1 [MM3144, N-[(S)-1-[N-(S)-1-[(1,3-benzothiazol-2-yl)carbonyl]-4-guanidinobutylcarbamoyl]-2-phenylethyl](S)-2-acetylaminoglutaramide] | – | – | – | 4.5 | – | 14 | – |
| CCC(C)[C@H](NC(C)=O)C(=O)N[C@@H](CCC(N)=O)C(=O)N[C@H](C(=O)N[C@H](CCCNC(=N)N)C(=O)c1nc2ccccc2s1)C(C)C (stereo partly drawn) [MM3180-1, N-[(S)-2-methyl-1-[N-(R)-1-[(1,3-benzothiazol-2-yl)carbonyl]-4-guanidinobutylcarbamoyl]propyl](S)-2-[(2S)-2-acetylamino-3-methylvalerylamino]glutaramide] | – | – | 14600 | > 20000 | 2.89 | – | IC50 [6]: > 20000 nM |
| CC(=O)N[C@H]1CC(=O)NCCCC[C@@H](C(=O)N[C@@H](CCCNC(=N)N)C(=O)c2nc3ccccc3s2)NC(=O)[C@H](CCC(N)=O)NC1=O [VD3152, N-[(S)-1-[(1,3-benzothiazol-2-yl)carbonyl]-4-guanidinobutyl]-(3S,6S,14S)-6-acetylamino-3-(2-carbamoylethyl)-2,5,8-trioxo-1,4,9-triaza-14-cyclotetradecane-carboxamide] | 7.7 | – | – | – | 24.3 | 16100 | IC50 [6]: > 20000 nM |
| CC(=O)N[C@H]1Cc2ccc(cc2)OC/C=C\CNC(=O)CC[C@@H](C(=O)N[C@@H](CCCNC(=N)N)C(=O)c2nc3ccccc3s2)NC(=O)[C@H](CC(C)C)NC1=O [VD4018, N-[(S)-1-[(1,3-benzothiazol-2-yl)carbonyl]-4-guanidinobutyl]-(4Z,11S,14S,17S)-17-acetylamino-14-isobutyl-8,13,16-trioxo-2-oxa-7,12,15-triazabicyclo[17.2.2]tricosa-1(21),4,19,22-tetraene-11-carboxamide] | – | – | – | 12400 | – | 6500 | IC50 ([5]; 30 min incubation, Boc-QAR-AMC at Km, read-out: TMPRSS2 IC50): 2.48 nM |
| CC(=O)N[C@H]1Cc2ccc(cc2)OC/C=C\CNC(=O)C[C@@H](C(=O)N[C@@H](CCCNC(=N)N)C(=O)c2nc3ccccc3s2)NC(=O)[C@H](CC(C)C)NC1=O [VD4054, N-[(S)-1-[(1,3-benzothiazol-2-yl)carbonyl]-4-guanidinobutyl]-(4Z,10S,13S,16S)-16-acetylamino-13-isobutyl-8,12,15-trioxo-2-oxa-7,11,14-triazabicyclo[16.2.2]docosa-1(20),4,18,21-tetraene-10-carboxamide] | 44 | – | > 20000 | 3180 | 21.6 | – | IC50 [2, 8]: 0.99 nM |
| CC(=O)N[C@H]1Cc2ccc(cc2)OCCCC[C@@H](C(=O)N[C@@H](CCCNC(=N)N)C(=O)c2nc3ccccc3s2)NC(=O)[C@H](Cc2ccccc2)NC1=O [VD4111B, N-[(S)-1-[(1,3-benzothiazol-2-yl)carbonyl]-4-guanidinobutyl]-(7S,10S,13S)-13-acetylamino-10-benzyl-9,12-dioxo-2-oxa-8,11-diazabicyclo[13.2.2]nonadeca-1(17),15,18-triene-7-carboxamide] | – | – | – | 8700 | 16.4 | – | IC50 [6]: > 20000 nM |
| CC(=O)N[C@H]1Cc2ccc(cc2)Oc2ccc(cc2)C[C@@H](C(=O)N[C@H](CCCNC(=N)N)C(=O)c2nc3ccccc3s2)NC(=O)[C@H](CC(C)C)NC1=O [VD5076A, N-[(R)-1-[(1,3-benzothiazol-2-yl)carbonyl]-4-guanidinobutyl]-(8S,11S,14S)-14-acetylamino-11-isobutyl-10,13-dioxo-2-oxa-9,12-diazatricyclo[14.2.2.2^3,^6]docosa-1(18),3,5,16,19,21-hexaene-8-carboxamide] | – | 55.3 | 2900 | – | 489 | – | IC50 [1]: 2370 nM |
| CC(=O)N[C@H]1Cc2cccc(c2)Oc2ccc(cc2)C[C@@H](C(=O)N[C@H](CCCNC(=N)N)C(=O)c2nc3ccccc3s2)NC(=O)[C@H](CC(C)C)NC1=O [VD5123A, N-{(R)-1-[(1,3-benzothiazol-2-yl)carbonyl]-4-guanidinobutyl}-(9S,12S,15S)-9-acetylamino-12-isobutyl-10,13-dioxo-2-oxa-11,14-diazatricyclo [15.2.2.1^3,^7]docosa-1(19),3(22),4,6,17,20-hexaene-15-carboxamide] | – | 146 | 17300 | – | 1.78 | – | IC50 [1]: 478 nM |
| CC(=O)N[C@H]1Cc2cccc(c2)Oc2ccc(cc2)C[C@@H](C(=O)N[C@@H](CCCNC(=N)N)C(=O)c2nc3ccccc3s2)NC(=O)[C@H](CC(C)C)NC1=O [VD5123B, N-[(S)-1-[(1,3-benzothiazol-2-yl)carbonyl]-4-guanidinobutyl]-(9S,12S,15S)-9-acetylamino-12-isobutyl-10,13-dioxo-2-oxa-11,14-diazatricyclo[15.2.2.1^3,^7] docosa-1(19),3,5,7(22), 17,20-hexaene-15-carboxamide] | 140 | – | – | – | 15.2 | 3980 | IC50 [2, 8]: 36.9 nM |
| CC(=O)N[C@@H](CO)C(=O)N[C@@H](CCC(N)=O)C(=O)N[C@@H](CC(C)C)C(=O)N[C@@H](CCCNC(=N)N)C(=O)c1nccs1 [ZFH6138, N-[(S)-3-methyl-1-[N-(S)-4-guanidino-1-[(1,3-thiazol-2-yl)carbonyl]butylcarbamoyl]butyl](S)-2-[(S)-2-acetylamino-3-hydroxypropionylamino]glutaramide] | – | 0.68 | – | – | 1.54 | – | IC50 [1]: 18 nM; IC50 [3]: 364 nM |
| CC(=O)N[C@@H](CC(C)C)C(=O)N[C@@H](CC(C)C)C(=O)N[C@@H](CCCNC(=N)N)C(=O)c1nccs1 [ZFH6201-1, N-[(S)-4-guanidino-1-[(1,3-thiazol-2-yl)carbonyl]butyl](S)-2-[(S)-2-acetylamino-4-methylvalerylamino]-4-methylvaleramide] | 56 | 4.6 | 506 | – | 44.2 | – | – |
| CC(=O)N[C@@H](CCCCN)C(=O)N[C@@H](CCC(N)=O)C(=O)N[C@@H](CC(C)C)C(=O)N[C@@H](CCCNC(=N)N)C(=O)c1nc2ccccc2s1 [ZFH7006, N-[(S)-3-methyl-1-[N-(S)-1-[(1,3-benzothiazol-2-yl)carbonyl]-4-guanidinobutylcarbamoyl]butyl](S)-2-[(S)-1-acetylamino-5-aminopentylcarbonyl-amino]glutaramide] | 1.1 | 0.17 | – | 258 | – | 60 | IC50 [5]: 18.1 nM |
| CC(=O)N[C@@H](CO)C(=O)N[C@@H](CCCCN)C(=O)N[C@@H](CC(C)C)C(=O)N[C@@H](CCCNC(=N)N)C(=O)c1nc2ccccc2s1 [ZFH7053, N-[(S)-3-methyl-1-[N-(S)-1-[(1,3-benzothiazol-2-yl)carbonyl]-4-guanidinobutylcarbamoyl]butyl](S)-2-[(S)-2-acetylamino-3-hydroxypropionylamino]-6-aminohexanamide] | 6.1 | 0.32 | – | 3800 | – | 66 | IC50 [5]: 39.2 nM |
